Experimental data as given in patent publication US20210087217A1, “NUCLEOTIDE HEMI-SULFATE SALT FOR THE TREATMENT OF HEPATITIS C VIRUS” (Atea Pharmaceuticals, Inc., priority 2017, published 2021).
Where a name gives a salt, the structure may show the parent alone.

Key:
[1] = Accelerated stability (40 ± 2° C./75 ± 5% RH) of Compound 2; assay type: physicochemical
Method: Three conditions were tested: accelerated stability (40 2° C./75±5% RH) over a 6-month time period, ambient stability (25±2° C./60±5% RH) over a 9-month period, and stability under refrigerator conditions (5 3° C.) over a 9-month time period. The results for accelerated stability, ambient stability, and refrigerator conditions are shown in Table 23, Table 24, and Table 25, respectively.
After six months, the total related substance 1 impurities was only 0.08% and there was no detection of related substance 2 and isomers.

[2] = Heart and liver tissue levels of active triphosphate 4 hours after oral Compound 2, rats; assay type: in vivo, rat; settings: 4 hours after oral dose of Compound 2
Method: High levels of the active TP were measured in the liver of all species tested.

[3] = Plasma levels of metabolites following single oral dose of Compound 2, rats; assay type: in vivo, rat; settings: single oral dose of Compound 2
[4] = Plasma profiles of Compound 2 metabolites in monkeys; assay type: in vivo, cynomolgus monkeys; settings: monkeys, single oral 30, 100 or 300 mg/kg Compound 2
[5] = Single ascending dose study of Compound 2 in healthy volunteers (Part A): safety, tolerability, pharmacokinetic; assay type: in vivo, human; settings: healthy subjects
Method: Compound 2 was tested in a single ascending dose (SAD) study to measure its safety, tolerability, and pharmacokinetic in healthy subjects (Part A). Part A was a randomized, double-blind, placebo-controlled SAD study. Healthy subjects in Part A received a single dose of Compound 2 or placebo in the fasting state. Subjects were confined to the clinic from Day −1 to Day 6.
Dosing in each cohort was staggered such that 2 subjects (1 active:1 placebo) were evaluated for 48 hours after dosing before the remainder of the cohort was dosed. Each cohort received Compound 2 in ascending order. Dosing of sequential cohorts occurred based on review of available safety data (through Day 5) and plasma pharmacokinetic data (through 24 h) of the prior cohort.
As pharmacokinetic and safety data emerged from prior cohorts, doses evaluated in Cohorts 3a-4a were adjusted by increments no more than 100 mg.
Healthy volunteers in the Part A portion of the study were male and female subjects between the ages of 18 and 65. Active and placebo recipients were pooled within each Part A cohort to preserve the study blind.
Pharmacokinetic of Compound 1 and nucleoside metabolite 1-7 were measured following the single dose of Compound 2. […] Values are reported as mean±SD, except or Tmax where median (range) is reported.

[6] = Chemical stability of Compound 2 at 25 and 40° C. over 6 months; assay type: physicochemical
Method: The container closure system for the study was a combination medicinal valve bag with a pharmaceutical laminated film over the pouch and desiccant silica gel between the two layers. […] Bags were then stored at 25° C./60% RH (relative humidity) and 40° C./75% RH (relative humidity). Organic purity, water content, ^1HNMR, DSC and Raman were measured at Time 0, Month 1, Month 2, Month 3 and Month 6.
The sample was dissolved in acetonitrile-water (90:10) (v/v). The gradient method is shown below.
At 25° C., the percent of degradation product increased from 0.03% at Day 0 to 0.08% after 6 months. At 40° C., the percent of degradation product increased from 0.03% to 0.39%. Over the course of 6 months, the percent of water increased approximately 0.6% at 25° C. and increased approximately 0.7% at 40° C.

CNc1nc(N)nc2c1ncn2[C@@H]1O[C@H](CO[P@@](=O)(N[C@@H](C)C(=O)OC(C)C)Oc2ccccc2)[C@@H](O)[C@@]1(C)F [Compound 2, hemi-sulfate salt of isopropyl((S)-(((2R,3R,4R,5R)-5-(2-amino-6-(methylamino)-9H-purin-9-yl)-4-fluoro-3-hydroxy-4-methyltetrahydrofuran-2-yl)methoxy)(phenoxy)phosphoryl)-L-alaninate]
Appearance ([1]; 40° C./75% RH, 0 month): White | Assay ([1]; 40° C./75% RH, 0 month): 98.8% | IR ([1]; 40° C./75% RH, 0 month): correspond | Related Substance 1: Any other single impurity ([1]; 40° C./75% RH, 0 month): 0.01% | Related Substance 1: Total Impurities ([1]; 40° C./75% RH, 0 month): 0.01% | Water ([1]; 40° C./75% RH, 0 month): 0.45% | Appearance ([1]; 40° C./75% RH, 1st month): White | Assay ([1]; 40° C./75% RH, 1st month): 101.5% | Related Substance 1: Any other single impurity ([1]; 40° C./75% RH, 1st month): 0.02% | Related Substance 1: Total Impurities ([1]; 40° C./75% RH, 1st month): 0.02% | Water ([1]; 40° C./75% RH, 1st month): 0.21% | Appearance ([1]; 40° C./75% RH, 3rd month): White | Assay ([1]; 40° C./75% RH, 3rd month): 99.6% | IR ([1]; 40° C./75% RH, 3rd month): correspond | Related Substance 1: Any other single impurity ([1]; 40° C./75% RH, 3rd month): 0.01% | Related Substance 1: Total Impurities ([1]; 40° C./75% RH, 3rd month): 0.02% | Water ([1]; 40° C./75% RH, 3rd month): 0.36% | Appearance ([1]; 40° C./75% RH, 6th month): White | Assay ([1]; 40° C./75% RH, 6th month): 99.5% | IR ([1]; 40° C./75% RH, 6th month): correspond | Related Substance 1: Any other single impurity ([1]; 40° C./75% RH, 6th month): 0.05% | Related Substance 1: Impurity F ([1]; 40° C./75% RH, 6th month): 0.01% | Related Substance 1: Total Impurities ([1]; 40° C./75% RH, 6th month): 0.08% | Water ([1]; 40° C./75% RH, 6th month): 0.41% | Stability ([1]; accelerated stability conditions (40° C./75% RH), 6 months): remains a white solid | Active TP (metabolite 1-6) level in heart [2]: unquantifiable levels | Active TP (metabolite 1-6) level in liver [2]: High levels | Compound 1 exposure [3]: low levels | Metabolite 1-7 levels [3]: high levels | Dose proportionality of metabolite 1-7 exposures [4]: somewhat less than dose-proportional | Dose proportionality of plasma exposures (AUC) of Compound 1 [4]: roughly dose-proportional | Intensity of adverse effects ([5]; Part A): mild to moderate | Serious adverse events ([5]; Part A): No serious adverse events | Tolerability ([5]; single oral dose): well tolerated | Increase of the percent of water over 6 months ([6]; 25° C.): approximately 0.6% | Maximum Impurity Percent ([6]; 25° C./60% RH, Day 0): 0.12% | Percent Purity ([6]; 25° C./60% RH, Day 0): 99.82% | Percent Water ([6]; 25° C./60% RH, Day 0): 1.2% | 1HNMR compared with Day 0 ([6]; 25° C./60% RH, Month 1): The same as | DSC compared with Day 0 ([6]; 25° C./60% RH, Month 1): The same as | Maximum Impurity Percent ([6]; 25° C./60% RH, Month 1): 0.12% | Percent Purity ([6]; 25° C./60% RH, Month 1): 99.77% | Percent Water ([6]; 25° C./60% RH, Month 1): 1.9% | Raman compared with Day 0 ([6]; 25° C./60% RH, Month 1): The same as | 1HNMR compared with Day 0 ([6]; 25° C./60% RH, Month 2): The same as | DSC compared with Day 0 ([6]; 25° C./60% RH, Month 2): The same as | Maximum Impurity Percent ([6]; 25° C./60% RH, Month 2): 0.12% | Percent Purity ([6]; 25° C./60% RH, Month 2): 99.75% | Percent Water ([6]; 25° C./60% RH, Month 2): 1.8% | Raman compared with Day 0 ([6]; 25° C./60% RH, Month 2): The same as | 1HNMR compared with Day 0 ([6]; 25° C./60% RH, Month 3): The same as | DSC compared with Day 0 ([6]; 25° C./60% RH, Month 3): The same as | Maximum Impurity Percent ([6]; 25° C./60% RH, Month 3): 0.12% | Percent Purity ([6]; 25° C./60% RH, Month 3): 99.75% | Percent Water ([6]; 25° C./60% RH, Month 3): 1.8% | Raman compared with Day 0 ([6]; 25° C./60% RH, Month 3): The same as | 1HNMR compared with Day 0 ([6]; 25° C./60% RH, Month 6): The same as | DSC compared with Day 0 ([6]; 25° C./60% RH, Month 6): The same as | Maximum Impurity Percent ([6]; 25° C./60% RH, Month 6): 0.13% | Percent Purity ([6]; 25° C./60% RH, Month 6): 99.74% | Percent Water ([6]; 25° C./60% RH, Month 6): 1.8% | Raman compared with Day 0 ([6]; 25° C./60% RH, Month 6): The same as | Increase of the percent of water over 6 months ([6]; 40° C.): approximately 0.7% | Maximum Impurity Percent ([6]; 40° C./75% RH, Day 0): 0.12% | Percent Purity ([6]; 40° C./75% RH, Day 0): 99.82% | Percent Water ([6]; 40° C./75% RH, Day 0): 1.2% | 1HNMR compared with Day 0 ([6]; 40° C./75% RH, Month 1): The same as | DSC compared with Day 0 ([6]; 40° C./75% RH, Month 1): The same as | Maximum Impurity Percent ([6]; 40° C./75% RH, Month 1): 0.12% | Percent Purity ([6]; 40° C./75% RH, Month 1): 99.71% | Percent Water ([6]; 40° C./75% RH, Month 1): 2.0% | Raman compared with Day 0 ([6]; 40° C./75% RH, Month 1): The same as | 1HNMR compared with Day 0 ([6]; 40° C./75% RH, Month 2): The same as | DSC compared with Day 0 ([6]; 40° C./75% RH, Month 2): The same as | Maximum Impurity Percent ([6]; 40° C./75% RH, Month 2): 0.12% | Percent Purity ([6]; 40° C./75% RH, Month 2): 99.63% | Percent Water ([6]; 40° C./75% RH, Month 2): 1.9% | Raman compared with Day 0 ([6]; 40° C./75% RH, Month 2): The same as | 1HNMR compared with Day 0 ([6]; 40° C./75% RH, Month 3): The same as | DSC compared with Day 0 ([6]; 40° C./75% RH, Month 3): The same as | Maximum Impurity Percent ([6]; 40° C./75% RH, Month 3): 0.12% | Percent Purity ([6]; 40° C./75% RH, Month 3): 99.58% | Percent Water ([6]; 40° C./75% RH, Month 3): 1.9% | Raman compared with Day 0 ([6]; 40° C./75% RH, Month 3): The same as | 1HNMR compared with Day 0 ([6]; 40° C./75% RH, Month 6): The same as | DSC compared with Day 0 ([6]; 40° C./75% RH, Month 6): The same as | Maximum Impurity Percent ([6]; 40° C./75% RH, Month 6): 0.14% | Percent Purity ([6]; 40° C./75% RH, Month 6): 99.30% | Percent Water ([6]; 40° C./75% RH, Month 6): 1.9% | Raman compared with Day 0 ([6]; 40° C./75% RH, Month 6): The same as | Rate of degradation ([6]; stored for 6 months at 25 and 40° C.): minimal
